Results reported in US20210244791A1, “APPLICATION OF PEDF-DERIVED SHORT PEPTIDES IN TENDON HEALING” (BRIM Biotechnology, Inc., priority 2018, published 2021).

Columns and labels:
[1] = test system: cultured tendon stem/progenitor cells (TSPC); conditions: peptide added in culture medium; previous study; cited from earlier work
tendon rupture = conditions: rat model; previous study; cited from earlier work
Primary rabbit TSPC = assay: TSPC cell proliferation assay (fluorometric kit); assay type: cell-based; conditions: 10 μM peptide, low serum media, PDSP solvent (DMSO) set as 100%, mean±SE of three experiments
Protocol: Primary rabbit TSPC were cultured to near-confluence in a 75T cell culture flask and then verified by immunostaining of a TSPC marker, nucleostemin (>98%; green color). Nuclei were stained with Hoechst 33258 (blue color) and visualized by an epifluorescence microscopy. The nucleostemine-positive TSPC were treated with 10 μM 29-mer or its variants for 24 h. The numbers of TSPC after 24-h expansion were detected with a cell proliferation assay kit (BioVision; catalog number: K307). The TSPC treated with PDSP solvent was set as 100%. Results are expressed as mean±SE of three independent experiments.
(§1) Achilles tendons from New Zealand White rabbits (6-8 months old, 3.0-4.0 kg) were used in this study. Achilles tendons were washed two times with sterile phosphate-buffered saline (PBS) containing 50 μg/ml gentamicin. The tendon and tendon sheath were cut into small pieces (1-2 mm^3). Each 100 mg of fragment was then digested in a solution containing 3 mg/ml of type I collagenase and 4 mg/ml of dispase in 1 ml balance salt solution (BSS; Alcone) at 37° C. for 4 hours. The digested tissues were washed three times with PBS and collected by centrifugation (800 g for 10 min). The digested tissues were placed in tissue-culture plates (Falcon Labware; NJ, USA) and resuspended in high-glucose DMEM supplemented with 10% FBS and 50 μg/ml gentamycin, and maintained at 37° C. with 5% CO2. After 5 days, the medium was changed to remove the loosened tissue residues. Subsequently, tendon cells were incubated with 10% FBS medium for 2 days, and then cultured with a basal medium (2% FBS, 1% ITSE, 300 μg/ml L-glutamine, 1% antibiotic-antimicotic solutions) for further 10 days. Culture medium was changed every 3 days. For passage, tendon cells were harvested with 0.25% trypsin/EDTA, cell counting by haemocytometer, approximately 5×10^3 cells were seeded in each well of a 96-well cell culture plate or 2×10^5 cells were seeded in each well of a 6-well cell culture plate for 24 h. These expanded tendon cells were then treated with 10 μM 29-mer or its variants in fresh basal medium for further 24 h and subjected to cell proliferation assay and western blot analysis, respectively.
Cell Proliferation Assay Kit (Fluorometric) was purchased from BioVision (Catalog #: K307) and used to evaluate cell proliferation according to the manufacturer's recommendations. The fluorescence was read at 480 nm for excitation and 538 nm for emission on a SPECTRAmax GEMINI XS fluorescence microplate spectrophotometer (Molecular Devices, Sunnyvale, Calif., USA).
Rabbit TSPC isolation was described above. TSPC in low serum media were treated with 10 μM of one of the 29-mer variants for 24 h. Cell proliferation was examined by a cell proliferation kit based on a kit provided nuclear dye that specifically binds to nucleic acid in the cell and generates green fluorescence.

cyclin D1 = assay: Western blot analysis of cyclin D1 expression in TSPC; assay type: cell-based, rabbit; conditions: TSPC treated 24 h; compared with solvent-treated cells; normalized to β-actin
Protocol: Primary rabbit TSPC were treated with 10NM 29-mer or its variants for 24 h. Representative blots (A) and densitometric analysis with the SD (B) from three independent experiments are shown. Cyclin D1 expression was normalized to ([…]. *P<0.01 vs. solvent-treated cells. ^#P<0.05 vs. 29-mer-treated cells.
as §1
Cell lysis, SDS-PAGE, and antibodies used for immunoblotting were performed as described (Ho et al., 15-deoxy-Delta(12,14)-prostaglandin J2 induces vascular endothelial cell apoptosis through the sequential activation of MAPKS and p53. J Biol. Chem., 2008; 283(44): 30273-30288). The band intensity in immunoblot was evaluated with a Model GS-700 imaging densitometer (Bio-Rad Laboratories, Hercules, Calif.) and analyzed using Labworks 4.0 software.
However, the 29-mer effect on cyclin D1 protein induction was almost abolished by alanine/glycine replacement at residue S93, A96, Q98, 1103, 1104 and R106, respectively (1.3±0.1, 1.5±0.3, 1.3±0.1, 0.9±0.1, 1.3±0.2, and 1.0±0.3). […] The data also imply that the PDSP at positions Ser93, Ala96, Gln98, Ile103, Ile104, and Arg106 are important for sustaining the PDSP effect on induction of TSPC proliferation.

injured Achilles tendon = assay: Rat model of Achilles tendon injury, histology (H&E) and histopathological score; assay type: in vivo; conditions: 1 week postoperative; subcutaneous 150 μl alginate gel with 100 μM peptide
Excerpt: Representative micrographs of the histopathological analysis by H&E staining. H&E-stained sections in higher magnification show uninjured tendon tissue with a relative scarcity of cells among the collagen fibers.
(A) Representative H&E-stained longitudinal sections in higher magnification show the nuclei morphologies in uninjured tendon tissue and injured tendon treated with vehicle/alginate and 29-mer/alginate for 1 week. (B) Histopathological scores. Total scores were determining by fiber structure, fiber arrangement, rounding of the nuclei, resident cell density and inflammation (infiltration of inflammatory cells, neovascularization and fatty deposits). Data are reported as mean±SE. *P<0.0005 versus vehicle/alginate-treated tendon; ^#P<0.05 versus 29-mer/alginate-treated tendon.
To investigate the effects of the 29-mer peptide on tendon healing, a rat model of Achilles tendon injury was established as reported by Orhan et al. (The effect of extracorporeal shock waves on a rat model of injury to tendon Achilles. A histological and biomechanical study. J. Bone Joint Surg. Br. 2004;.86(4):.613-618). Adult 10-week-old male Sprague-Dawley rats (initial body weight=312±11 g) were anesthetized by an intraperitoneal injection of xylazine (10 mg/kg). Then, the left tendo Achilles injury was created by full-thickness insertion of an 18-G needle through tendo Achilles 1 cm proximal to the calcaneum attachment site. This created a horizontal wound that was flanked by intact tendon tissue to prevent the retraction of severed ends. The skin incision was closed after the wound was irrigated with sterile saline. Treatments were applied to area around the tendon lesion by subcutaneous injection with 150 μl of alginate gel mixed with 100 μM 29-mer or DMSO vehicle (six rats per experimental condition).
The tendon and surrounding soft tissue were dissected. Specimens were fixed in a 4% paraformaldehyde (PFA) solution and then were embedded in paraffin blocks. Sections (5 μm in thickness) were longitudinally cut and stained with hematoxylin and eosin (H&E) or used for immunohistochemical examination. 36 sections per tendon were carefully prepared so as to include the most severely degenerated area. Images were captured using a Nikon Eclipse 80i microscope (Nikon Corporation, Tokyo, Japan) equipped with a Leica DC 500 camera (Leica Microsystems, Wetzlar, Germany). Four sections of each sample containing injured tendon tissues were selected and evaluated by two blinded observers to assess the tendon morphology according to a modified semi-quantitative grading score from 0 to 3 proposed by Chen et al. (Tendon derived stem cells promote platelet-rich plasma healing in collagenase-induced rat Achilles tendinopathy. Cell Physiol. Biochem., 2014; 34(6): 2153-68). The scores analyzed the fiber structure (0-3), fiber arrangement (0-3), rounding of the nuclei (0-3), resident cell density (0-3), and inflammation (0-3; infiltration of inflammatory cells, neovascularization and fatty deposits). According to this grading system, a perfectly normal tendon obtained a score of 0, whereas a score of 15 was assigned to maximally abnormal tendons.
To investigate the therapeutic effect of the 29-mer peptide on injured tendon, a rat model of Achilles tendon injury was established by full-thickness insertion of an 18-G needle through the tendon Achilles. We delivered the 29-mer in a 150 μl alginate gel, which releases 90% loaded 29-mer in 5 days as described in a previous protocol (Ho et al., PEDF-derived peptide promotes skeletal muscle regeneration through its mitogenic effect on muscle progenitor cells. Am J Physiol. Cell Physiol. 2015 Aug. 1; 309(3): C159-68).

Substance	induction of cultured TSPC proliferation [1]	healing of tendon rupture (tendon rupture)	TSPC proliferation (numbers of TSPC after 24-h expansion) (Primary rabbit TSPC)	induction of the cyclin D1 protein (cyclin D1)	histological appearance of treated tendon (H&E staining) (injured Achilles tendon)
20-mer: PEDF-derived short peptide, Ser93-Leu112 (SLGAEQRTESIIHRALYYDL; UniProt P36955 93-112, looked up, fragment)	able to induce cultured tendon stem/progenitor cells (TSPC) proliferation	facilitated healing of tendon rupture	–	–	–
24-mer: PEDF-derived short peptide, Ser93-Pro (SLGAEQRTESIIHRALYYDLISSP; UniProt P36955 93-116, looked up, fragment)	able to induce cultured tendon stem/progenitor cells (TSPC) proliferation	facilitated healing of tendon rupture	–	–	–
1103A: 29-mer variant with single alanine replacement at isoleucine-103 (SLGAEQRTESAIHRALYYDLISSPDIHGT; UniProt P36955 93-121, looked up, variant I103A)	–	–	106±5.3%	0.9±0.1 fold	loss of fiber organization and accompanied a marked increase in inflammatory matrix, fatty deposits, and vascularity
1104A: 29-mer variant with single alanine replacement at isoleucine-104 (SLGAEQRTESIAHRALYYDLISSPDIHGT; UniProt P36955 93-121, looked up, variant I104A)	–	–	112±1.7%	1.3±0.2 fold	loss of fiber organization and accompanied a marked increase in inflammatory matrix, fatty deposits, and vascularity
A96G: 29-mer variant with single glycine alteration at alanine-96 (SLGGEQRTESIIHRALYYDLISSPDIHGT; UniProt P36955 93-121, looked up, variant A96G)	–	–	102±4.0%	1.5±0.3 fold	loss of fiber organization and accompanied a marked increase in inflammatory matrix, fatty deposits, and vascularity
A107G: 29-mer variant with single glycine alteration at residue 107 (SLGAEQRTESIIHRGLYYDLISSPDIHGT; UniProt P36955 93-121, looked up, variant A107G)	–	–	117±3.8%	–	–
P116A: 29-mer variant with single alanine alteration at residue 116 (SLGAEQRTESIIHRALYYDLISSADIHGT; UniProt P36955 93-121, looked up, variant P116A)	–	–	115±3.7%	–	–
Q98A: 29-mer variant with single alanine replacement at glutamine-98 (SLGAEARTESIIHRALYYDLISSPDIHGT; UniProt P36955 93-121, looked up, variant Q98A)	–	–	106±5.4%	1.3±0.1 fold	loss of fiber organization and accompanied a marked increase in inflammatory matrix, fatty deposits, and vascularity
R99A: 29-mer variant with single alanine alteration at residue 99 (SLGAEQATESIIHRALYYDLISSPDIHGT; UniProt P36955 93-121, looked up, variant R99A)	–	–	116±7.0%	–	–
R106A: 29-mer variant with single alanine replacement at arginine-106 (SLGAEQRTESIIHAALYYDLISSPDIHGT; UniProt P36955 93-121, looked up, variant R106A)	–	–	106±3.5%	1.0±0.3 fold	loss of fiber organization and accompanied a marked increase in inflammatory matrix, fatty deposits, and vascularity
